Assay results reported in ChEMBL document CHEMBL3885861, “Open TG-GATES”.

Species: Rattus norvegicus
Assay: Open TG-GATES - Regimen: Single
Assay type: toxicity, organism-based, Sprague-Dawley
Set-up: regimen Single, gender Male, age 6 weeks
Details: in vivo, po, route gavage; for APTT / Bas / Eos / Fbg / Hb / Ht / Lym / MCH / MCHC / MCV / Mono / Neu / PT / Plat / RBC / Ret / WBC: tissue Blood; for KIDNEY_L / KIDNEY_R / KIDNEY_TOTAL: tissue Kidney; for LIVER: tissue Liver; for ALP / ALT / AST / BUN / CRE / DBIL / GLC / K / LDH / Na / PL / RALB / TBIL / TC / TG / TP / gamma-GTP: tissue Plasma
[1] = 150 mg/kg, 3 h, dose level Middle
[2] = 150 mg/kg, 6 h, dose level Middle
[3] = 150 mg/kg, 9 h, dose level Middle
[4] = 150 mg/kg, 24 h, dose level Middle
[5] = 450 mg/kg, 3 h, dose level High
[6] = 450 mg/kg, 6 h, dose level High
[7] = 450 mg/kg, 9 h, dose level High
[8] = 450 mg/kg, 24 h, dose level High

Q: Which results are given for `CC(CCc1ccccc1)NCC(O)c1ccc(O)c(C(N)=O)c1` (configuration not stated) [LABETALOL]?
A: TERMINAL_BW [1]: 215.7 g; APTT [1]: 16.5 s; Bas [1]: 0%; Eos [1]: 0.8%; Fbg [1]: 263.6 mg/dL; Hb [1]: 12.4 g/dL; Ht [1]: 36.2%; Lym [1]: 77%; MCH [1]: 21.9 pg; MCHC [1]: 34.1%; MCV [1]: 64.2 fL; Mono [1]: 3%; Neu [1]: 18.6%; PT [1]: 13.3 s; Plat [1]: 115.1 x10_4/uL; RBC [1]: 564.6 x10_4/ul; Ret [1]: 8.3%; WBC [1]: 77.1 x10_2/uL; KIDNEY_L [1]: 1 g; KIDNEY_R [1]: 0.9 g; KIDNEY_TOTAL [1]: 1.9 g; LIVER [1]: 9.4 g; ALP [1]: 1401.4 IU/L; ALT [1]: 46 IU/L; AST [1]: 73.6 IU/L; BUN [1]: 12 mg/dL; CRE [1]: 0.2 mg/dL; DBIL [1]: 0.01 mg/dL; GLC [1]: 207.2 mg/dL; K [1]: 3.7 meq/L; LDH [1]: 48.6 IU/L; Na [1]: 142.2 meq/L; PL [1]: 125.2 mg/dL; RALB [1]: 2.5 g/dL; TBIL [1]: 0.042 mg/dL; TC [1]: 70 mg/dL; TG [1]: 49.4 mg/dL; TP [1]: 5.2 g/dL; gamma-GTP [1]: 1.4 IU/L; TERMINAL_BW [2]: 215.9 g; APTT [2]: 15.9 s; Bas [2]: 0%; Eos [2]: 1%; Fbg [2]: 269.8 mg/dL; Hb [2]: 12.5 g/dL; Ht [2]: 36.5%; Lym [2]: 74.6%; MCH [2]: 21.1 pg; MCHC [2]: 34.3%; MCV [2]: 61.7 fL; Mono [2]: 3.6%; Neu [2]: 20.2%; PT [2]: 13.1 s; Plat [2]: 106.3 x10_4/uL; RBC [2]: 593.6 x10_4/ul; Ret [2]: 7.9%; WBC [2]: 81 x10_2/uL; KIDNEY_L [2]: 0.9 g; KIDNEY_R [2]: 0.9 g; KIDNEY_TOTAL [2]: 1.8 g; LIVER [2]: 8.9 g; ALP [2]: 1487.8 IU/L; ALT [2]: 39.4 IU/L; AST [2]: 71 IU/L; BUN [2]: 9.4 mg/dL; CRE [2]: 0.2 mg/dL; DBIL [2]: 0.01 mg/dL; GLC [2]: 199.4 mg/dL; K [2]: 4.2 meq/L; LDH [2]: 44.8 IU/L; Na [2]: 142.8 meq/L; PL [2]: 126 mg/dL; RALB [2]: 2.4 g/dL; TBIL [2]: 0.04 mg/dL; TC [2]: 73.2 mg/dL; TG [2]: 41.8 mg/dL; TP [2]: 5.1 g/dL; gamma-GTP [2]: 1 IU/L; TERMINAL_BW [3]: 213.9 g; APTT [3]: 15.6 s; Bas [3]: 0%; Eos [3]: 0.8%; Fbg [3]: 287.8 mg/dL; Hb [3]: 12.5 g/dL; Ht [3]: 37.1%; Lym [3]: 77.6%; MCH [3]: 21.8 pg; MCHC [3]: 33.7%; MCV [3]: 64.8 fL; Mono [3]: 1.8%; Neu [3]: 19.6%; PT [3]: 13.2 s; Plat [3]: 106.5 x10_4/uL; RBC [3]: 572.4 x10_4/ul; Ret [3]: 8.2%; WBC [3]: 82.4 x10_2/uL; KIDNEY_L [3]: 0.9 g; KIDNEY_R [3]: 0.9 g; KIDNEY_TOTAL [3]: 1.9 g; LIVER [3]: 8.7 g; ALP [3]: 1516.4 IU/L; ALT [3]: 41.4 IU/L; AST [3]: 68.4 IU/L; BUN [3]: 10.2 mg/dL; CRE [3]: 0.2 mg/dL; DBIL [3]: 0.01 mg/dL; GLC [3]: 185.4 mg/dL; K [3]: 3.9 meq/L; LDH [3]: 42.4 IU/L; Na [3]: 144.6 meq/L; PL [3]: 136.6 mg/dL; RALB [3]: 2.6 g/dL; TBIL [3]: 0.036 mg/dL; TC [3]: 77.8 mg/dL; TG [3]: 56.6 mg/dL; TP [3]: 5.5 g/dL; gamma-GTP [3]: 1.2 IU/L; TERMINAL_BW [4]: 223.2 g; APTT [4]: 14.8 s; Bas [4]: 0%; Eos [4]: 1%; Fbg [4]: 345.2 mg/dL; Hb [4]: 13.1 g/dL; Ht [4]: 38.4%; Lym [4]: 71.6%; MCH [4]: 21 pg; MCHC [4]: 34.2%; MCV [4]: 61.4 fL; Mono [4]: 3.8%; Neu [4]: 23%; PT [4]: 12.7 s; Plat [4]: 116.5 x10_4/uL; RBC [4]: 625.6 x10_4/ul; Ret [4]: 8.2%; WBC [4]: 77.1 x10_2/uL; KIDNEY_L [4]: 0.9 g; KIDNEY_R [4]: 0.9 g; KIDNEY_TOTAL [4]: 1.8 g; LIVER [4]: 10.1 g; ALP [4]: 1738.6 IU/L; ALT [4]: 45.6 IU/L; AST [4]: 76 IU/L; BUN [4]: 16.6 mg/dL; CRE [4]: 0.2 mg/dL; DBIL [4]: 0.016 mg/dL; GLC [4]: 180.6 mg/dL; K [4]: 4.3 meq/L; LDH [4]: 72.6 IU/L; Na [4]: 143.2 meq/L; PL [4]: 159.6 mg/dL; RALB [4]: 2.6 g/dL; TBIL [4]: 0.038 mg/dL; TC [4]: 92 mg/dL; TG [4]: 96.4 mg/dL; TP [4]: 5.7 g/dL; gamma-GTP [4]: 1.2 IU/L; TERMINAL_BW [5]: 212.9 g; APTT [5]: 17.6 s; Bas [5]: 0%; Eos [5]: 1%; Fbg [5]: 255.2 mg/dL; Hb [5]: 12.2 g/dL; Ht [5]: 35.8%; Lym [5]: 76%; MCH [5]: 21.5 pg; MCHC [5]: 34.1%; MCV [5]: 62.9 fL; Mono [5]: 3.2%; Neu [5]: 19.4%; PT [5]: 13 s; Plat [5]: 109.9 x10_4/uL; RBC [5]: 569.4 x10_4/ul; Ret [5]: 8.1%; WBC [5]: 70.3 x10_2/uL; KIDNEY_L [5]: 1 g; KIDNEY_R [5]: 0.9 g; KIDNEY_TOTAL [5]: 1.9 g; LIVER [5]: 9.4 g; ALP [5]: 1740.2 IU/L; ALT [5]: 47 IU/L; AST [5]: 73 IU/L; BUN [5]: 13.2 mg/dL; CRE [5]: 0.2 mg/dL; DBIL [5]: 0.01 mg/dL; GLC [5]: 198.4 mg/dL; K [5]: 3.9 meq/L; LDH [5]: 56.8 IU/L; Na [5]: 142.4 meq/L; PL [5]: 124 mg/dL; RALB [5]: 2.4 g/dL; TBIL [5]: 0.04 mg/dL; TC [5]: 68.4 mg/dL; TG [5]: 39.2 mg/dL; TP [5]: 5.2 g/dL; gamma-GTP [5]: 1.4 IU/L; TERMINAL_BW [6]: 216.2 g; APTT [6]: 16.6 s; Bas [6]: 0%; Eos [6]: 1%; Fbg [6]: 288.6 mg/dL; Hb [6]: 12.2 g/dL; Ht [6]: 36.2%; Lym [6]: 75.4%; MCH [6]: 21.9 pg; MCHC [6]: 33.8%; MCV [6]: 64.8 fL; Mono [6]: 2.6%; Neu [6]: 20.4%; PT [6]: 12.6 s; Plat [6]: 112.1 x10_4/uL; RBC [6]: 561 x10_4/ul; Ret [6]: 8.2%; WBC [6]: 89.2 x10_2/uL; KIDNEY_L [6]: 1 g; KIDNEY_R [6]: 0.9 g; KIDNEY_TOTAL [6]: 1.9 g; LIVER [6]: 9 g; ALP [6]: 1401.4 IU/L; ALT [6]: 42.6 IU/L; AST [6]: 69.8 IU/L; BUN [6]: 10 mg/dL; CRE [6]: 0.2 mg/dL; DBIL [6]: 0.006 mg/dL; GLC [6]: 188.8 mg/dL; K [6]: 4.1 meq/L; LDH [6]: 53.4 IU/L; Na [6]: 143.4 meq/L; PL [6]: 131 mg/dL; RALB [6]: 2.5 g/dL; TBIL [6]: 0.038 mg/dL; TC [6]: 78 mg/dL; TG [6]: 23.2 mg/dL; TP [6]: 5.2 g/dL; gamma-GTP [6]: 1 IU/L; TERMINAL_BW [7]: 218.2 g; APTT [7]: 16 s; Bas [7]: 0%; Eos [7]: 0.8%; Fbg [7]: 285 mg/dL; Hb [7]: 12.8 g/dL; Ht [7]: 37.5%; Lym [7]: 75.4%; MCH [7]: 22.6 pg; MCHC [7]: 34.1%; MCV [7]: 66.1 fL; Mono [7]: 2%; Neu [7]: 21.4%; PT [7]: 12.9 s; Plat [7]: 98.6 x10_4/uL; RBC [7]: 567 x10_4/ul; Ret [7]: 8%; WBC [7]: 90.3 x10_2/uL; KIDNEY_L [7]: 0.9 g; KIDNEY_R [7]: 0.9 g; KIDNEY_TOTAL [7]: 1.8 g; LIVER [7]: 8.5 g; ALP [7]: 1515.4 IU/L; ALT [7]: 49.6 IU/L; AST [7]: 71.2 IU/L; BUN [7]: 9 mg/dL; CRE [7]: 0.2 mg/dL; DBIL [7]: 0.01 mg/dL; GLC [7]: 179 mg/dL; K [7]: 4.2 meq/L; LDH [7]: 41.2 IU/L; Na [7]: 144.2 meq/L; PL [7]: 135 mg/dL; RALB [7]: 2.5 g/dL; TBIL [7]: 0.044 mg/dL; TC [7]: 78 mg/dL; TG [7]: 30.6 mg/dL; TP [7]: 5.2 g/dL; gamma-GTP [7]: 1 IU/L; TERMINAL_BW [8]: 219.8 g; APTT [8]: 15.5 s; Bas [8]: 0%; Eos [8]: 1%; Fbg [8]: 290.8 mg/dL; Hb [8]: 13 g/dL; Ht [8]: 38.1%; Lym [8]: 74%; MCH [8]: 21.6 pg; MCHC [8]: 34.2%; MCV [8]: 62.9 fL; Mono [8]: 2.6%; Neu [8]: 22%; PT [8]: 12.6 s; Plat [8]: 115.1 x10_4/uL; RBC [8]: 605.2 x10_4/ul; Ret [8]: 7.5%; WBC [8]: 68.4 x10_2/uL; KIDNEY_L [8]: 1 g; KIDNEY_R [8]: 0.9 g; KIDNEY_TOTAL [8]: 1.9 g; LIVER [8]: 9.6 g; ALP [8]: 1840.6 IU/L; ALT [8]: 44 IU/L; AST [8]: 74 IU/L; BUN [8]: 17.4 mg/dL; CRE [8]: 0.2 mg/dL; DBIL [8]: 0.012 mg/dL; GLC [8]: 167.8 mg/dL; K [8]: 4.7 meq/L; LDH [8]: 55.2 IU/L; Na [8]: 142.2 meq/L; PL [8]: 144.8 mg/dL; RALB [8]: 2.6 g/dL; TBIL [8]: 0.03 mg/dL; TC [8]: 88 mg/dL; TG [8]: 57.8 mg/dL; TP [8]: 5.6 g/dL; gamma-GTP [8]: 1.2 IU/L
